One may read the Ki as a dissociation constant, usually derived from enzyme kinetics or from competition with a known ligand. The low end stands for tighter binding, the high end for weaker binding. A word on the ED50: it is the dose that gives a 50% effect, or the effect in half of the subjects.

Assay [1] addresses T1, Alpha-2C adrenergic receptor (Homo sapiens, UniProt P18825).
T1 sequence (P18825 whole entry): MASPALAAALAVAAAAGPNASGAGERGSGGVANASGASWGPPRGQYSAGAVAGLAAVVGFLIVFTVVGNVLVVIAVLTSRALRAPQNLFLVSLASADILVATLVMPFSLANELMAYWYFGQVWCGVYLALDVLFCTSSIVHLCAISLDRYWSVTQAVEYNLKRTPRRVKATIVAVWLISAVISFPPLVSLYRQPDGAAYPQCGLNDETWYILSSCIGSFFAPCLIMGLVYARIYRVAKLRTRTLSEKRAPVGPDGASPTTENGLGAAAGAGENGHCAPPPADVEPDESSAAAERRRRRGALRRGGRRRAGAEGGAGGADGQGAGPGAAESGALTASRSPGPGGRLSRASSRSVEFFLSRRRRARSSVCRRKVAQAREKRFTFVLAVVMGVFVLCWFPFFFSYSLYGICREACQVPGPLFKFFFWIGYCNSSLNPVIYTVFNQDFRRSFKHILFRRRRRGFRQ
As to the kind of experiment: Inhibition of [3H]rauwolscine binding to Alpha-2C adrenergic receptor.

The target of assay [2] is Norepinephrine transporter (Rattus norvegicus, UniProt Q9WTR4). As to the kind of experiment: Inhibition of [3H]nisoxetine binding to rat Norepinephrine transporter.
Chain of Norepinephrine transporter (Q9WTR4 whole entry): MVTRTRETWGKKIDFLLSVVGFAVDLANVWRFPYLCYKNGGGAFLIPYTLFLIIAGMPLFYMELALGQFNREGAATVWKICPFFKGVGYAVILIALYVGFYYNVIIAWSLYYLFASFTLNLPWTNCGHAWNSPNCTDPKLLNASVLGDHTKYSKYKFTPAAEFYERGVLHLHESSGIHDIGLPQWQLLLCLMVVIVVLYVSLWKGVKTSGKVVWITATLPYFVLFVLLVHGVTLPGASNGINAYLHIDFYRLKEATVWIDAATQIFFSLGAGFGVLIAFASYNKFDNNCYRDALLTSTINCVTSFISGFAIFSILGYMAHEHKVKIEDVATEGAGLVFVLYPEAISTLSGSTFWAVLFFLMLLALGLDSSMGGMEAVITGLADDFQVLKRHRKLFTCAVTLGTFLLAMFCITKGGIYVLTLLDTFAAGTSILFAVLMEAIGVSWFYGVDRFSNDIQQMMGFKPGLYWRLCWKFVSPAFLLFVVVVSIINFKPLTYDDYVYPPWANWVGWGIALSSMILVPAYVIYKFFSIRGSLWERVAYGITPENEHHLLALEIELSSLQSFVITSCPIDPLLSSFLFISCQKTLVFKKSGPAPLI
A further assay concerns the target D(1A) dopamine receptor (Homo sapiens, UniProt P21728). Put plainly: Inhibition of [3H]SCH-23390 binding to human Dopamine receptor D1.
The target of the next assay is Histamine H1 receptor (Homo sapiens, UniProt P35367).
Chain of Histamine H1 receptor (P35367 whole entry): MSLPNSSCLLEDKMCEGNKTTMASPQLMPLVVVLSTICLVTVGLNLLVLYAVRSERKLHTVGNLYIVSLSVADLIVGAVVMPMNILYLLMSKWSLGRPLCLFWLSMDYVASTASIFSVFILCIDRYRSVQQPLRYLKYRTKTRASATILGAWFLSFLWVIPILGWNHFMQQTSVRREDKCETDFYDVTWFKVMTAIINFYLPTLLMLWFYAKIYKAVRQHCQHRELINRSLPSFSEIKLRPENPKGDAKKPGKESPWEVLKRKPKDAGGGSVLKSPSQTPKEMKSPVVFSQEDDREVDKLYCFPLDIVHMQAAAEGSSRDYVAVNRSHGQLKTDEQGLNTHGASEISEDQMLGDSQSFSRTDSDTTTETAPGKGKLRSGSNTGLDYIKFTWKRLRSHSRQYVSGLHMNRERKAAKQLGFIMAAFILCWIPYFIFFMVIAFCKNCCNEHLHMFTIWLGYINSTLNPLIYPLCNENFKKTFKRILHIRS
For assay [3], the target named is 5-hydroxytryptamine receptor 7 (Homo sapiens, UniProt P34969).
Chain of 5-hydroxytryptamine receptor 7 (P34969 whole entry): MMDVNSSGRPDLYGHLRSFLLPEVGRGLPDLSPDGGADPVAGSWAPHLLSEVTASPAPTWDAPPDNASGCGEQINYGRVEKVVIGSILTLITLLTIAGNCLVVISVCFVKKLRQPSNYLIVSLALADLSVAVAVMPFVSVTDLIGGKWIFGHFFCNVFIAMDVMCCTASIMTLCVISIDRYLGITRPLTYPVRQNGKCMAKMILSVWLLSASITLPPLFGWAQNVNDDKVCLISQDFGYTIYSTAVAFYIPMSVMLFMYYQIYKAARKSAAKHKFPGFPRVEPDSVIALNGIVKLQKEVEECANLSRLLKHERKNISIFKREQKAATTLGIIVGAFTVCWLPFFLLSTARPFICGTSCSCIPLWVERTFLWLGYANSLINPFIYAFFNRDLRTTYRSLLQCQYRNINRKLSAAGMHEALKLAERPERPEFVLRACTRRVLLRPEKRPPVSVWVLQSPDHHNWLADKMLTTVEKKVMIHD
Description: Inhibition of [3H]5-HT binding to human 5-hydroxytryptamine 7 receptor
In another assay the target is D(3) dopamine receptor (Homo sapiens, UniProt P35462).
Chain of D(3) dopamine receptor (P35462 whole entry): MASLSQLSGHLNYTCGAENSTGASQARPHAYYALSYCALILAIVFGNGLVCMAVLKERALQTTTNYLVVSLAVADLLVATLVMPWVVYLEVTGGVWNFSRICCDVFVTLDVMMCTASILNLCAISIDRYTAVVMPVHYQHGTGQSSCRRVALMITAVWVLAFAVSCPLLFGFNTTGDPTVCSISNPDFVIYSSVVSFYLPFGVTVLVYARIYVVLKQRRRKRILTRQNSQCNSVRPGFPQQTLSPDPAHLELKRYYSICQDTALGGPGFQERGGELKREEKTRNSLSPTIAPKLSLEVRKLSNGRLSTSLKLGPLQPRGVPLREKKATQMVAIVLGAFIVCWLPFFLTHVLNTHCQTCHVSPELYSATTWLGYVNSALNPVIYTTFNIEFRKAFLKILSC
Assay [4] concerns the target T2, Alpha-2A adrenergic receptor (Homo sapiens, UniProt P08913).
T2 sequence (P08913 whole entry): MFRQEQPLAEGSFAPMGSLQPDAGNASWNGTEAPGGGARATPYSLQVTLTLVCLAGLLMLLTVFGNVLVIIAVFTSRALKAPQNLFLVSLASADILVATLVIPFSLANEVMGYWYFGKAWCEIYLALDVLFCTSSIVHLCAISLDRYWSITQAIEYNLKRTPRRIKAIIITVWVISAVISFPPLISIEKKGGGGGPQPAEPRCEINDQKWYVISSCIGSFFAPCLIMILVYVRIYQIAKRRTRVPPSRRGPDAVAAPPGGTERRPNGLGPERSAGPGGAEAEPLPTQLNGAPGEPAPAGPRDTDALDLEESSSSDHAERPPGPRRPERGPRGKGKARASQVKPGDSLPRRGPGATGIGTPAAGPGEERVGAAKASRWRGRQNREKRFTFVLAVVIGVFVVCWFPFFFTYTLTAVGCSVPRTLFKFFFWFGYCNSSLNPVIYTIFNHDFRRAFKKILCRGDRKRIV
Description: Inhibition of [3H]rauwolscine binding to Alpha-2A adrenergic receptor

Assay [5] addresses T3, 5-hydroxytryptamine receptor 2C (Homo sapiens, UniProt P28335).
T3 sequence (P28335 whole entry): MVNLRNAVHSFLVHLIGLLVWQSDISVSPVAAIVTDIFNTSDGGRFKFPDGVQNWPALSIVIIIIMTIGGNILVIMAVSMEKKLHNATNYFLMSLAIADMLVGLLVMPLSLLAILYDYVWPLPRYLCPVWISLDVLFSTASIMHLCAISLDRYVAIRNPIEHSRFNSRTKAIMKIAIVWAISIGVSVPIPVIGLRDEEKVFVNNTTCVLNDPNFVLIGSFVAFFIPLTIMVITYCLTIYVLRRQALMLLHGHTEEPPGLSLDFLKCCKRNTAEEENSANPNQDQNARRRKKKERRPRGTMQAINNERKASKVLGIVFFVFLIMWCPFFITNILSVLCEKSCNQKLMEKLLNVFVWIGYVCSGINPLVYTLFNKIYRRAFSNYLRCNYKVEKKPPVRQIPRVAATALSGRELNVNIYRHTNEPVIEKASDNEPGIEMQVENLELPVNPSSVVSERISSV
Description: Inhibition of [3H]mesulergine binding to human 5-hydroxytryptamine 2C receptor

Assay [6] has as its target T4, Adrenergic receptor alpha-1 (Rattus norvegicus, UniProt P15823+P23944+P43140).
T4 sequence (P15823 whole entry): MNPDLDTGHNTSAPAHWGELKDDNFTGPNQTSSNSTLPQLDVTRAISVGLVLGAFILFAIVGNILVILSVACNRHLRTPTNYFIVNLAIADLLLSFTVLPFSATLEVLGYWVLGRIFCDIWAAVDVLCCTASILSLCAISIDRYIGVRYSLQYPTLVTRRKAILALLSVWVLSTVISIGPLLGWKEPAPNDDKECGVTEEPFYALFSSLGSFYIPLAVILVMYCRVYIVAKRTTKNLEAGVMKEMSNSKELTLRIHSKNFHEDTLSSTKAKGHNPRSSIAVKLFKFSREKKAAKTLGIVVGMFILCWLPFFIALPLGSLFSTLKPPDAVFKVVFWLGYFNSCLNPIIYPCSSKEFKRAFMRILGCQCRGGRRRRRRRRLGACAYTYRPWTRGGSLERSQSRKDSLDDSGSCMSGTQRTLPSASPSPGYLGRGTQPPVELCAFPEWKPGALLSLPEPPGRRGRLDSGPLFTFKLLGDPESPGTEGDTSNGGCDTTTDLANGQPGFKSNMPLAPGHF
T4 sequence (P23944 whole entry): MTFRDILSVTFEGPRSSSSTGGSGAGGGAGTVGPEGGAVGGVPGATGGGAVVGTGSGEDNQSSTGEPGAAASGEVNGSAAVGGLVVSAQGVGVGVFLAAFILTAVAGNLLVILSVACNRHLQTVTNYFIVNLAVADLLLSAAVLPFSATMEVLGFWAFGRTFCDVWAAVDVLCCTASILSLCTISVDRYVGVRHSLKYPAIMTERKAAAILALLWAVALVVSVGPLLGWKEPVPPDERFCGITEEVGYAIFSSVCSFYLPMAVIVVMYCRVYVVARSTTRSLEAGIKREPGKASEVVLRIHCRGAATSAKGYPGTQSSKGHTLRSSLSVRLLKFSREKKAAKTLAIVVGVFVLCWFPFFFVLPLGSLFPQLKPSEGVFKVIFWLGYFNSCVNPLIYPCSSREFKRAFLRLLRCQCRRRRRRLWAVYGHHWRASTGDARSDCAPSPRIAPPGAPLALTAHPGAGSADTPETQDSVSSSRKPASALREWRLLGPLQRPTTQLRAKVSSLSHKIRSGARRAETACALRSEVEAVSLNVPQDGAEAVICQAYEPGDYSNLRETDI
T4 sequence (P43140 whole entry): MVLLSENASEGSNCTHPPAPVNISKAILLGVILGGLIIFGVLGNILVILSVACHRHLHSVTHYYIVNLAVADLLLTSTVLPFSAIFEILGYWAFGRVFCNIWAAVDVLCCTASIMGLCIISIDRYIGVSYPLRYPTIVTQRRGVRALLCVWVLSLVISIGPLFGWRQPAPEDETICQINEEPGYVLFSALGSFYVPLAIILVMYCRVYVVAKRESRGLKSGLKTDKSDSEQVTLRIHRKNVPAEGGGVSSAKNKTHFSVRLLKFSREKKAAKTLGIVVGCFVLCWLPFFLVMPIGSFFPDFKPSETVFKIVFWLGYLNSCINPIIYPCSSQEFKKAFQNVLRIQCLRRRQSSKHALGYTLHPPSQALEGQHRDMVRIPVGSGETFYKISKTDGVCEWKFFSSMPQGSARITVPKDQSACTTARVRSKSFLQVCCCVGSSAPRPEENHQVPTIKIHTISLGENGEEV
Description: Inhibition of [3H]prazosin binding to rat Alpha-1 adrenergic receptor

In assay [7] the test system is Rattus norvegicus. As to the kind of experiment: In vivo effective dose to inhibit tryptamine-induced bilateral convulsions in rats. The format is functional.
Assay [8] has as its system Rattus norvegicus. Put plainly: In vivo effective dose for reversal of tryptamine-induced backward locomotion in rats. Type of assay: functional.
Another assay relates to Mus musculus. Put plainly: In vivo effective dose for reversal of RO-4-1284 induced hypothermia in mouse. Type of assay: functional.
Assay [9] is filed under the species Rattus norvegicus. Put plainly: Effective dose for antagonistic activity against m-chlorophenyl-piperazine induced anxiety in rats. Type of assay: functional.
Assay [10] deals with Rattus norvegicus. As to the kind of experiment: In vivo effective dose to inhibit apomorphine induced agitation in rats upon subcutaneous administration. The format is functional. The note with it: sc.
For assay [11], the system named is Rattus norvegicus. As to the kind of experiment: In vivo effective dose for reversal of tryptamine-induced cyanosis in rats. Type of assay: functional.

Chain of D(1A) dopamine receptor (P21728 whole entry): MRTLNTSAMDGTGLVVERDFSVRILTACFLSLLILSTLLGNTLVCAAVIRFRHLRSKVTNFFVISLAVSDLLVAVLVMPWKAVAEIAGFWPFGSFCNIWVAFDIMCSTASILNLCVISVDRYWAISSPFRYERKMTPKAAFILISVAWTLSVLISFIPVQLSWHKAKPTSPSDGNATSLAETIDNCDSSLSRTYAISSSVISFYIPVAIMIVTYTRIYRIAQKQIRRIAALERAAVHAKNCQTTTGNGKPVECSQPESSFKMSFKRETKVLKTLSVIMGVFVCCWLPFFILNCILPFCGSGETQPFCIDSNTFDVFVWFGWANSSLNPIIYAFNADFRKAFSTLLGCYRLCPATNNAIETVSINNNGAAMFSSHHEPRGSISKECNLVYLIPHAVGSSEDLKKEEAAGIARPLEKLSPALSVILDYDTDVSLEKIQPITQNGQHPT
Description for D(3) dopamine receptor: Inhibition of [125I]iodosulpiride binding to human Dopamine receptor D3
Description for Histamine H1 receptor: Inhibition of [3H]pyrilamine binding to human Histamine H1 receptor

In the case of `CN(C)C[C@H]1CC2c3ccccc3Oc3ccc(Br)cc3[C@H]2O1` (stereo partly specified), the Ki was determined as 742 nM in [1]; 382 nM in [2]; 154 nM on D(1A) dopamine receptor; 42 nM on Histamine H1 receptor; 35 nM in [3]; 95 nM at D(3) dopamine receptor. The values for the inhibition constant Ki in assay [4], in assay [5] and in assay [6] were 407 nM, 8.9 nM and 234 nM, respectively.
Consider `CN(C)C[C@@H]1CC2c3ccccc3Oc3ccc(Br)cc3[C@H]2O1` (stereo partly specified), for which the Ki in assay [2] was above 5450 nM; in assay [5], 17 nM.
In the case of `CN(C)C[C@H]1C[C@@H]2c3ccccc3Cc3ccccc3[C@H]2O1`, the Ki in [1] is 69 nM; in [2], 7.8 nM; on Histamine H1 receptor, 0.43 nM; in [3] it was 13 nM; at D(3) dopamine receptor it was 84 nM; in [4], 126 nM. In assay [6], the inhibition constant Ki is given as 108 nM. In addition, the ED50 in the assay on Rattus norvegicus [7] is 0.02 mg/kg; with Rattus norvegicus [8], 1.2 mg/kg; in the assay with Mus musculus, 0.2 mg/kg; in the assay filed under Rattus norvegicus [9], 0.18 mg/kg; in the assay on Rattus norvegicus [10], 2 mg/kg; in the assay with Rattus norvegicus [11], 0.02 mg/kg.
In the case of `CN(C)C[C@@H]1CC2c3ccccc3Sc3ccc(F)cc3[C@H]2O1` (stereo partly specified), the Ki stood at 78 nM in assay [1]; 2.7 nM in assay [2]; 19 nM at D(1A) dopamine receptor; 1.2 nM on Histamine H1 receptor; 34 nM in assay [3]; 8.6 nM on D(3) dopamine receptor. Besides, the Ki in assay [4] came out at 72 nM; in [5] it was 0.65 nM; in assay [6], 32 nM.
Turning to `CN(C)C[C@@H]1CC2c3ccccc3Oc3ccc(Cl)cc3[C@H]2O1` (stereo partly specified), the inhibition constant Ki in [1] came to 677 nM; in [2] it was 88 nM; on D(1A) dopamine receptor it was 250 nM; on Histamine H1 receptor, 14 nM; in assay [3], 92 nM; on D(3) dopamine receptor it was 45 nM. Also, the Ki in [4] was 302 nM; in assay [5], 3.7 nM; in [6], 228 nM.
Turning to `CN(C)C[C@H]1C[C@@H]2c3ccccc3Sc3ccc(F)cc3[C@H]2O1`, the Ki in [1] was 93 nM; in [2], 40 nM; at D(1A) dopamine receptor, 22 nM; on Histamine H1 receptor it was 1.4 nM; in [3], 6.5 nM; on D(3) dopamine receptor, 15 nM. The figures for the Ki in [4], in assay [5] and in [6] were 156 nM, 1.5 nM and 41 nM, respectively. In addition, the ED50 with Rattus norvegicus [7] was 0.08 mg/kg; in the assay with Rattus norvegicus [8] it was above 2.5 mg/kg; with Mus musculus it was 2 mg/kg; in the assay listed under Rattus norvegicus [9] it was above 2.5 mg/kg; with Rattus norvegicus [10], 1.2 mg/kg; in the assay on Rattus norvegicus [11] it was 0.05 mg/kg.
As to `CN(C)C[C@H]1CC2c3ccccc3Oc3ccc(Cl)cc3[C@H]2O1` (stereo partly specified), the Ki in [1] amounted to 26 nM; in assay [2], 9.4 nM; on D(1A) dopamine receptor, 83 nM; at Histamine H1 receptor, 4.3 nM; in assay [3] it was 251 nM; at D(3) dopamine receptor, 251 nM. For the same compound, the Ki in [4] was 10 nM; in assay [5] it was 2.4 nM; in [6], 35 nM.
As to `CN(C)C[C@H]1CC2c3ccccc3Sc3ccc(F)cc3[C@H]2O1` (stereo in doubt; 8d), the Ki in assay [1] stood at 59 nM; in assay [2] it was 1.6 nM; at D(1A) dopamine receptor, 5.2 nM; on Histamine H1 receptor it was 0.52 nM; in assay [3], 6.6 nM; at D(3) dopamine receptor, 1.1 nM. The Ki in assay [4] is 66 nM; in [5] it was below 0.42 nM; in assay [6], 8.8 nM.
Turning to `CN1CCN(C2=Nc3cc(Cl)ccc3Nc3ccccc32)CC1` [CLOZAPINE], the median effective dose (ED50) was 0.22 mg/kg in the assay on Rattus norvegicus [7]; above 80 mg/kg with Mus musculus; above 2.5 mg/kg in the assay listed under Rattus norvegicus [9]; 8.2 mg/kg with Rattus norvegicus [10]; 0.26 mg/kg in the assay with Rattus norvegicus [11].
With `CN1CCN2c3ccccc3Cc3ccccc3C2C1` (stereo unspecified) [MIANSERIN], the inhibition constant Ki in [1] turned out to be 3.8 nM; in assay [2], 101 nM. Further, the ED50 in the assay on Rattus norvegicus [7] is 0.24 mg/kg; in the assay on Rattus norvegicus [8], 0.55 mg/kg; with Mus musculus, above 40 mg/kg; in the assay filed under Rattus norvegicus [9], 1.26 mg/kg; in the assay on Rattus norvegicus [10] it was above 10 mg/kg; with Rattus norvegicus [11] it was 0.18 mg/kg.
In [2], `Cc1cc2c(s1)Nc1ccccc1N=C2N1CCN(C)CC1` [OLANZAPINE] came in with a Ki of 958 nM. For the same compound, the ED50 in the assay on Rattus norvegicus [7] was 0.086 mg/kg; in the assay with Mus musculus, above 10 mg/kg; in the assay filed under Rattus norvegicus [9] it was 0.44 mg/kg; in the assay with Rattus norvegicus [10] it was 0.26 mg/kg; in the assay with Rattus norvegicus [11], 0.032 mg/kg.
In the case of `Cc1nc2n(c(=O)c1CCN1CCC(c3noc4cc(F)ccc34)CC1)CCCC2` [RISPERIDONE], the Ki in assay [2] is above 5450 nM. The ED50 in the assay on Rattus norvegicus [7] is 0.037 mg/kg; in the assay on Rattus norvegicus [8] it was above 10 mg/kg; in the assay with Mus musculus it was above 10 mg/kg; in the assay listed under Rattus norvegicus [9] it was above 0.31 mg/kg; in the assay with Rattus norvegicus [10], 0.17 mg/kg; in the assay on Rattus norvegicus [11], 0.002 mg/kg.

(Values after ChEMBL document CHEMBL1142715, “Discovery of new tetracyclic tetrahydrofuran derivatives as potential broad-spectrum psychotropic agents” (J Med Chem, 2005).)
